# According to patent publication US12281122B1, “PI3K inhibitors” (Cogent Biosciences, Inc., priority 2023, dated 2025):
# Experiments:
# [1] = test system: T47D (PI3Kα-H1047R) cell line; assay: HTRF phospho-AKT(S473) cell assay in T47D cells; assay type: cell-based, human
# In short: (§1)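 T47D: RPMI + 10% FBS + 0.2 units/mL insulin, top 5 μM. SKBR3: McCoy's 5A + 10% FBS, top 10 μM, 70 ng/ml PDGF-BB last 15 min. Both: 12-pt 1:3, 2 h, 37° C, max 0.5% DMSO; HTRF pAKT(S473); IC50.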
# [2] = test system: SKBR3 (PI3Kα-Wild Type) cell line; assay: HTRF phospho-AKT(S473) cell assay in SKBR3 cells; assay type: cell-based, human
# In short: as §1
# [3] = Homo sapiens; HTRF phospho-AKT(S473), T47D (PI3Kα-H1047R) cells, 2 hours compound incubation
# [4] = Homo sapiens, SK-BR-3; HTRF phospho-AKT(S473), SKBR3 (PI3Kα-Wild Type) cells, 2 hours compound incubation, PDGF-BB stimulated
# [5] = Homo sapiens; T47D (PI3Kα-H1047R) cells, HTRF phospho-AKT(S473), 2 hours compound incubation
# [6] = Homo sapiens, SK-BR-3; SKBR3 (PI3Kα-Wild Type) cells, HTRF phospho-AKT(S473), 2 hours compound incubation, PDGF-BB stimulated
SMILES,"IC50 [1, 3]","IC50 [2, 4]","IC50 [1, 5]","IC50 [2, 6]"
"Cc1cc([C@@H](C)Nc2ccc(Cl)nc2C(=O)NS(C)(=O)=O)c2nc(N3CC[C@@H](Oc4ccc(F)cn4)C3)n(C)c(=O)c2c1 [Compound 713, 6-chloro-3-(((R)-1-(2-((R)-3-((5-fluoropyridin-2-yl)oxy)pyrrolidin-1-yl)-3,6-dimethyl-4-oxo-3,4-dihydroquinazolin-8-yl)ethyl)amino)-N-(methylsulfonyl) picolinamide]",0.25 to 0.5 µM,1 to 5 µM,–,–
"Cc1cc([C@@H](C)Nc2ccc(Cl)nc2C(=O)NS(C)(=O)=O)c2nc(C3CCCN(c4ncc(F)cn4)C3)n(C)c(=O)c2c1 (mixture of isomers) [Compound 748, 6-chloro-3-(((1R)-1-(2-(1-(5-fluoropyrimidin-2-yl)piperidin-3-yl)-3,6-dimethyl-4-oxo-3,4-dihydroquinazolin-8-yl)ethyl)amino)-N-(methylsulfonyl) picolinamide]",0.5 to 1 µM,≥ 5 µM,–,–
"Cc1cc([C@@H](C)Nc2ccc(Cl)nc2C(=O)NS(C)(=O)=O)c2nc(N3Cc4cnn(C5(C(F)(F)F)CC5)c4C3)n(C)c(=O)c2c1 [Compound 179, (R)-6-chloro-3-((1-(3,6-dimethyl-4-oxo-2-(1-(1-(trifluoromethyl)cyclopropyl)-4,6-dihydropyrrolo[3,4-c]pyrazol-5(1H)-yl)-3,4-dihydroquinazolin-8-yl)ethyl)amino)-N-(methylsulfonyl) picolinamide]",–,–,< 0.25 µM,1 to 5 µM
"Cc1cc([C@@H](C)Nc2ccc(Cl)nc2C(=O)NS(C)(=O)=O)c2nc(N3C[C@@H]4[C@H](C3)[C@H]4c3ccc(C#N)nc3)n(C)c(=O)c2c1 [Compound 402, 6-chloro-3-(((R)-1-(2-((1R,5S,6S)-6-(6-cyanopyridin-3-yl)-3-azabicyclo[3.1.0]hexan-3-yl)-3,6-dimethyl-4-oxo-3,4-dihydroquinazolin-8-yl)ethyl)amino)-N-(methylsulfonyl) picolinamide]",–,–,< 0.25 µM,1 to 5 µM
"Cc1cc([C@@H](C)Nc2ccc(Cl)nc2C(=O)NS(C)(=O)=O)c2nc(N3C[C@@H]4[C@H](C3)[C@H]4c3nnn(C)n3)n(C)c(=O)c2c1 [Compound 496, 6-chloro-3-(((R)-1-(3,6-dimethyl-2-((1R,5S,6R)-6-(2-methyl-2H-tetrazol-5-yl)-3-azabicyclo[3.1.0]hexan-3-yl)-4-oxo-3,4-dihydroquinazolin-8-yl)ethyl)amino)-N-(methylsulfonyl) picolinamide]",< 0.25 µM,1 to 5 µM,–,–
"Cc1cc([C@@H](C)Nc2ccc(Cl)nc2C(=O)NS(C)(=O)=O)c2nc(N3Cc4cn(-c5ccnn5C)nc4C3)n(C)c(=O)c2c1 [Compound 277, (R)-6-chloro-3-((1-(3,6-dimethyl-2-(2-(1-methyl-1H-pyrazol-5-yl)-2,6-dihydropyrrolo[3,4-c]pyrazol-5(4H)-yl)-4-oxo-3,4-dihydroquinazolin-8-yl)ethyl)amino)-N-(methylsulfonyl) picolinamide]",–,–,< 0.25 µM,1 to 5 µM
"Cc1cc([C@@H](C)Nc2ccc(Cl)nc2C(=O)NS(C)(=O)=O)c2nc(N3Cc4nccnc4C3)n(C)c(=O)c2c1 [Compound 534, (R)-6-chloro-3-((1-(2-(5,7-dihydro-6H-pyrrolo[3,4-b]pyrazin-6-yl)-3,6-dimethyl-4-oxo-3,4-dihydroquinazolin-8-yl)ethyl)amino)-N-(methylsulfonyl) picolinamide]",< 0.25 µM,1 to 5 µM,–,–

# The remaining lines, values ahead:
"IC50 [1, 3]","IC50 [2, 4]","IC50 [1, 5]","IC50 [2, 6]",SMILES
0.25 to 0.5 µM,≥ 5 µM,–,–,"Cc1cc([C@@H](C)Nc2ccc(Cl)nc2C(=O)NS(C)(=O)=O)c2nc(N3CCC[C@@H](c4ccnn4C(F)F)C3)n(C)c(=O)c2c1 (relative stereo) [Compound 771, 6-chloro-3-(((R)-1-(2-((R*)-3-(1-(difluoromethyl)-1H-pyrazol-5-yl)piperidin-1-yl)-3,6-dimethyl-4-oxo-3,4-dihydroquinazolin-8-yl)ethyl)amino)-N-(methylsulfonyl) picolinamide]"
–,–,< 0.25 µM,1 to 5 µM,"Cc1cc([C@@H](C)Nc2ccc(Cl)nc2C(=O)NS(C)(=O)=O)c2nc(N3CCC(c4c(C)nn(C)c4C)CC3)n(C)c(=O)c2c1 [Compound 226, (R)-6-chloro-3-((1-(3,6-dimethyl-4-oxo-2-(4-(1,3,5-trimethyl-1H-pyrazol-4-yl)piperidin-1-yl)-3,4-dihydroquinazolin-8-yl)ethyl)amino)-N-(methylsulfonyl) picolinamide]"
< 0.25 µM,1 to 5 µM,–,–,"COc1c([C@H]2[C@@H]3CN(c4nc5c([C@@H](C)Nc6ccc(Cl)nc6C(=O)NS(C)(=O)=O)cc(C)cc5c(=O)n4C)C[C@@H]32)cnn1C [Compound 461, 6-chloro-3-(((R)-1-(2-((1R,5S,6S)-6-(5-methoxy-1-methyl-1H-pyrazol-4-yl)-3-azabicyclo[3.1.0]hexan-3-yl)-3,6-dimethyl-4-oxo-3,4-dihydroquinazolin-8-yl)ethyl)amino)-N-(methylsulfonyl) picolinamide]"
–,–,< 0.25 µM,1 to 5 µM,"Cc1cc([C@@H](C)Nc2ccc(Cl)nc2C(=O)NS(C)(=O)=O)c2nc(N3CCN(c4cnn(C)c4)CC3)n(C)c(=O)c2c1 [Compound 188, (R)-6-chloro-3-((1-(3,6-dimethyl-2-(4-(1-methyl-1H-pyrazol-4-yl)piperazin-1-yl)-4-oxo-3,4-dihydroquinazolin-8-yl)ethyl)amino)-N-(methylsulfonyl) picolinamide]"
–,–,< 0.25 µM,1 to 5 µM,"Cc1cc([C@@H](C)Nc2ccc(Cl)nc2C(=O)NS(C)(=O)=O)c2nc(N3CCC(c4ccc(N(C)C)nc4)CC3)n(C)c(=O)c2c1 [Compound 242, (R)-6-chloro-3-((1-(2-(4-(6-(dimethylamino)pyridin-3-yl)piperidin-1-yl)-3,6-dimethyl-4-oxo-3,4-dihydroquinazolin-8-yl)ethyl)amino)-N-(methylsulfonyl) picolinamide]"
< 0.25 µM,1 to 5 µM,–,–,"COc1cc(N2CCN(c3nc4c([C@@H](C)Nc5ccc(Cl)nc5C(=O)NS(C)(=O)=O)cc(C)cc4c(=O)n3C)CC2)ccn1 [Compound 554, (R)-6-chloro-3-((1-(2-(4-(2-methoxypyridin-4-yl)piperazin-1-yl)-3,6-dimethyl-4-oxo-3,4-dihydroquinazolin-8-yl)ethyl)amino)-N-(methylsulfonyl) picolinamide]"
–,–,< 0.25 µM,1 to 5 µM,"Cc1cc([C@@H](C)Nc2ccc(Cl)nc2C(=O)NS(C)(=O)=O)c2nc(N3CC[C@H](Oc4ccnn4C)C3)n(C)c(=O)c2c1 [Compound 351, 6-chloro-3-(((R)-1-(3,6-dimethyl-2-((S)-3-((1-methyl-1H-pyrazol-5-yl)oxy)pyrrolidin-1-yl)-4-oxo-3,4-dihydroquinazolin-8-yl)ethyl)amino)-N-(methylsulfonyl) picolinamide]"
0.25 to 0.5 µM,1 to 5 µM,–,–,"Cc1cc([C@@H](C)Nc2ccc(Cl)nc2C(=O)NS(C)(=O)=O)c2nc(N3CCC(c4nnc(C)o4)CC3)n(C)c(=O)c2c1 [Compound 557, (R)-6-chloro-3-((1-(3,6-dimethyl-2-(4-(5-methyl-1,3,4-oxadiazol-2-yl)piperidin-1-yl)-4-oxo-3,4-dihydroquinazolin-8-yl)ethyl)amino)-N-(methylsulfonyl) picolinamide]"
